# US20140255392A1 (BAYER INTELLECTUAL PROPERTY GMBH, priority 2011, published 2014)
# pIC50: −log10 of the molar value.
# Target: T1, human kinase Mps-1 (Homo sapiens, UniProt P33981)
# T1 construct: N-terminally GST-tagged human full length recombinant Mps-1 kinase; GST (N); purchased Invitrogen, Karslruhe, Germany PV4071
# T1 sequence (P33981 1-857): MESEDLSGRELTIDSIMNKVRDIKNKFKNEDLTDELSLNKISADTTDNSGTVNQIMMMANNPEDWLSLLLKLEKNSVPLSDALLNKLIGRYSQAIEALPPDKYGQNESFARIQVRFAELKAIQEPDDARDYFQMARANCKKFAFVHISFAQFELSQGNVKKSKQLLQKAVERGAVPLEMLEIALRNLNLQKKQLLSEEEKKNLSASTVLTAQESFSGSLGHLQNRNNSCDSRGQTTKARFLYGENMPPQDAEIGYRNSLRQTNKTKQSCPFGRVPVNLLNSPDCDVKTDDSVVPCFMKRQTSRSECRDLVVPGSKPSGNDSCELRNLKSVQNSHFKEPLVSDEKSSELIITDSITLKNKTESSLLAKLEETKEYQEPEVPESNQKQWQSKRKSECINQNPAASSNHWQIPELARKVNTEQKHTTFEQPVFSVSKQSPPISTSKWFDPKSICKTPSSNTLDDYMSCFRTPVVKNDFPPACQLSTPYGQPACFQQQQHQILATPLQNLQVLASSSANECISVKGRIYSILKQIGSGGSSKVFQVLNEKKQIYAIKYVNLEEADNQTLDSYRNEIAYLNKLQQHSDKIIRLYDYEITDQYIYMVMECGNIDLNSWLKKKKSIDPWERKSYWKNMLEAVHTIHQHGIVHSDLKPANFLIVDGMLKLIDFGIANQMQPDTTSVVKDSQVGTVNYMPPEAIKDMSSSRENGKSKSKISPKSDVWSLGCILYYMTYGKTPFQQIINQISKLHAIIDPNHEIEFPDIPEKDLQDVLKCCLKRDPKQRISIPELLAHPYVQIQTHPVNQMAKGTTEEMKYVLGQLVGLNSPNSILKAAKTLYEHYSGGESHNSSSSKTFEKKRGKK
# Experiment: Mps-1 kinase assay (TR-FRET)
# Format: biochemical
# Settings: N-terminally GST-tagged human full length recombinant Mps-1; 10 μM ATP; 1 μM peptide substrate; 60 min at 22° C.
# Outline: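 GST-Mps-1 (full length, N-term tag) ~1 nM final, linear-range adjusted per lot; biotinylated peptide substrate. Detection: Eu-anti-pSer/Thr donor → SA-XLent acceptor TR-FRET, 1 h, 22° C. Inhibition of kinase activity.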
row,pIC50,Molecule
1,7.32,"Cc1cc(-c2cnc3c(NCC(F)F)cc(Oc4cc(F)ccc4F)cn23)ccc1C(=O)NC1CC1 [Example 165, N-cyclopropyl-4-{8-[(2,2-difluoroethyl)amino]-6-(2,5-difluorophenoxy)imidazo[1,2-a]pyridin-3-yl}-2-methylbenzamide]"
2,7.26,"C#Cc1cc(NCCC(F)(F)F)c2ncc(-c3ccc(C(=O)NCC)c(C)c3)n2c1 [Example 15, N-ethyl-4-{6-ethynyl-8-[(3,3,3-trifluoropropyl)amino]imidazo[1,2-a]pyridin-3-yl}-2-methylbenzamide]"
3,8.24,"Cc1cc(-c2cnc3c(NCCC(F)(F)F)cc(Oc4ccccc4)cn23)ccc1C(=O)NC1(C)CC1 [Example 58, 2-Methyl-N-(1-methylcyclopropyl)-4-{6-phenoxy-8-[(3,3,3-trifluoropropyl)amino]imidazo[1,2-a]pyridin-3-yl}benzamide]"
4,8.01,"CNC(=O)c1ccc(-c2cnc3c(NCCC(F)(F)F)cc(-c4ccncc4)cn23)cc1C [Example 88, N,2-dimethyl-4-{6-(pyridin-4-yl)-8-[(3,3,3-trifluoropropyl)amino]imidazo[1,2-a]pyridin-3-yl}benzamide]"
5,7.86,"Cc1ccc(F)cc1Oc1cc(NCCC(F)(F)F)c2ncc(-c3ccc(C(=O)NC4(C#N)CC4)c(C)c3)n2c1 [Example 28, N-(1-cyanocyclopropyl)-4-{6-(5-fluoro-2-methylphenoxy)-8-[(3,3,3-trifluoropropyl)amino]imidazo[1,2-a]pyridin-3-yl}-2-methylbenzamide]"
6,7.67,"CNC(=O)c1ccc(-c2cnc3c(NCCC(F)(F)F)cc(-c4ccc(C(=O)NC5(C#N)CC5)c(C)c4)cn23)cc1C [Example 156, 4-(6-{4-[(1-cyanocyclopropyl)carbamoyl]-3-methylphenyl}-8-[(3,3,3-trifluoropropyl)amino]imidazo[1,2-a]pyridin-3-yl)-N,2-dimethylbenzamide]"
7,8.89,"Cc1ccc(F)cc1Oc1cc(NCCC(F)(F)F)c2ncc(-c3ccc(C(=O)N[C@H]4C[C@@H]4F)c(C)c3)n2c1 (relative stereo) [Example 29, N-[rel-(1S,2S)-2-fluorocyclopropyl]-4-{6-(5-fluoro-2-methylphenoxy)-8-[(3,3,3-trifluoropropyl)amino]imidazo[1,2-a]pyridin-3-yl}-2-methylbenzamide]"
8,7.31,"Cc1ccc(F)cc1Oc1cc(NCCC(F)(F)F)c2ncc(-c3ccc(C(=O)NC4(C5CC5)CC4)c(C)c3)n2c1 [Example 62, N-[1′,1′-bi(cyclopropyl)-1-yl]-4-{6-(5-fluoro-2-methylphenoxy)-8-[(3,3,3-trifluoropropyl)amino]imidazo[1,2-a]pyridin-3-yl}-2-methylbenzamide]"
9,8.31,"Cc1ccc(F)cc1Oc1cc(NCCC(F)(F)F)c2ncc(-c3ccc(C(=O)N[C@@H]4C[C@H]4C)c(C)c3)n2c1 (relative stereo) [Example 61, Rel-4-{6-(5-fluoro-2-methylphenoxy)-8-[(3,3,3-trifluoropropyl)amino]imidazo[1,2-a]pyridin-3-yl}-2-methyl-N-[(1R,2R)-2-methylcyclopropyl]benzamide]"
10,6.63,"CNC(=O)c1ccc(-c2cnc3c(NCCC(F)(F)F)cc(C(C)O)cn23)cc1C (racemic) [Example 144, 4-{6-[(1RS)-1-Hydroxyethyl]-8-[(3,3,3-trifluoropropyl)amino]imidazo[1,2-a]pyridin-3-yl}-N,2-dimethylbenzamide]"
11,8.21,"COc1ccc(Oc2cc(NCC(F)F)c3ncc(-c4ccc(C(=O)NC5CC5)c(C)c4)n3c2)cc1F [Example 167, N-cyclopropyl-4-{8-[(2,2-difluoroethyl)amino]-6-(3-fluoro-4-methoxyphenoxy)imidazo[1,2-a]pyridin-3-yl}-2-methylbenzamide]"
12,7.35,"C/C=C/c1cc(NCCC(F)(F)F)c2ncc(-c3ccc(C(=O)NCC)c(C)c3)n2c1 [Example 113, N-ethyl-2-methyl-4-{6-[(1E)-prop-1-en-1-yl]-8-[(3,3,3-trifluoropropyl)amino]imidazo[1,2-a]pyridin-3-yl}benzamide]"
13,6.84,"CNC(=O)c1ccc(-c2cnc3c(NCCC(F)(F)F)cc(CCCO)cn23)cc1C [Example 126, 4-{6-(3-hydroxypropyl)-8-[(3,3,3-trifluoropropyl)amino]imidazo[1,2-a]pyridin-3-yl}-N,2-dimethylbenzamide]"
14,9.40,"Cc1cc(-c2cnc3c(NCCC(F)(F)F)cc(Oc4cccc(F)c4F)cn23)ccc1C(=O)NC1CC1 [Example 30, N-cyclopropyl-4-{6-(2,3-difluorophenoxy)-8-[(3,3,3-trifluoropropyl)amino]imidazo[1,2-a]pyridin-3-yl}-2-methylbenzamide]"
15,9.22,"Cc1cc(-c2cnc3c(NCCC(F)(F)F)cc(Oc4ccc(O)cc4)cn23)ccc1C(=O)NC1CC1 [Example 110, N-cyclopropyl-4-{6-(4-hydroxyphenoxy)-8-[(3,3,3-trifluoropropyl)amino]imidazo[1,2-a]pyridin-3-yl}-2-methylbenzamide]"
16,8.09,"COCCNc1cc(Oc2cccc(F)c2F)cn2c(-c3ccc(C(=O)NC4CC4)c(C)c3)cnc12 [Example 173, N-cyclopropyl-4-{6-(2,3-difluorophenoxy)-8-[(2-methoxyethyl)amino]imidazo[1,2-a]pyridin-3-yl}-2-methylbenzamide]"
17,9.15,"Cc1cc(-c2cnc3c(NCCC(F)(F)F)cc(Oc4ccccc4)cn23)ccc1C(=O)NC1CC1 [Example 33, N-cyclopropyl-2-methyl-4-{6-phenoxy-8-[(3,3,3-trifluoropropyl)amino]imidazo[1,2-a]pyridin-3-yl}benzamide]"
18,9.40,"COc1ccc(Oc2cc(NCCC(F)(F)F)c3ncc(-c4ccc(C(=O)NC5CC5)c(C)c4)n3c2)cc1F [Example 42, N-cyclopropyl-4-{6-(3-fluoro-4-methoxyphenoxy)-8-[(3,3,3-trifluoroprorwl)amino]imidazo[1,2-a]pyridin-3-yl}-2-methylbenzamide]"
19,7.07,"C=Cc1cc(NCCC(F)(F)F)c2ncc(-c3ccc(C(=O)NCC)c(C)c3)n2c1 [Example 94, N-ethyl-2-methyl-4-{8-[(3,3,3-trifluoropropyl)amino]-6-vinylimidazo[1,2-a]pyridin-3-yl}benzamide]"
20,6.98,"Cc1cc(-c2cnc3c(NCCC(F)(F)F)cc(Oc4cccc(OC(F)(F)F)c4)cn23)ccc1C(=O)NC1(C)CC1 [Example 76, 2-Methyl-N-(1-methylcyclopropyl)-4-{6-[3-(trifluoromethoxy)phenoxy]-8-[(3,3,3-trifluoropropyl)amino]imidazo[1,2-a]pyridin-3-yl}benzamide]"
21,8.34,"N-cyclopropyl-4-{8-[(2,2-difluoroethyl)amino]-6-(2,5-difluorophenoxy)imidazo[1,2-a]pyridin-3-yl}-2-methylbenzamide [Example 166]"
22,6.80,"Cc1cc(-c2cnc3c(NCCC(F)(F)F)cc(Oc4cccc(OC(F)(F)F)c4)cn23)ccc1C(=O)NC1(C#N)CC1 [Example 75, N-(1-cyanocyclopropyl)-2-methyl-4-{6-[3-(trifluoromethoxy)phenoxy]-8-[(3,3,3-trifluoropropyl)amino]imidazo[1,2-a]pyridin-3-yl}benzamide]"
23,7.95,"Cc1cc(-c2cnc3c(NCCC(F)(F)F)cc(Oc4cccc(Cl)c4)cn23)ccc1C(=O)NC1(C)CC1 [Example 36, 4-{6-(3-chlorophenoxy)-8-[(3,3,3-trifluoropropyl)amino]imidazo[1,2-a]pyridin-3-yl}-2-methyl-N-(1-methylcyclopropyl)benzamide]"
24,6.97,"C#Cc1cc(NCCC(F)(F)F)c2ncc(-c3ccc(C(=O)NC4(C)CC4)c(C)c3)n2c1 [Example 17, 4-{6-ethynyl-8-[(3,3,3-trifluoropropyl)amino]imidazo[1,2-a]pyridin-3-yl}-2-methyl-N-(1-methylcyclopropyl)benzamide]"
25,7.32,"C=Cc1cc(NCCC(F)(F)F)c2ncc(-c3ccc(C(=O)N[C@H]4C[C@@H]4F)c(C)c3)n2c1 (relative stereo) [Example 97, N-[rel-(1S,2S)-2-fluorocyclopropyl]-2-methyl-4-{8-[(3,3,3-trifluoropropyl)amino]-6-vinylimidazo[1,2-a]pyridin-3-yl}benzamide]"
26,6.09,"COCCNc1cc(C(=O)c2cc(F)ccc2O)cn2c(-c3ccc(C(=O)NC4CC4)c(C)c3)cnc12 [Example 174, N-cyclopropyl-4-{6-(5-fluoro-2-hydroxybenzoyl)-8-[(2-methoxyethyl)amino]imidazo[1,2-a]pyridin-3-yl}-2-methylbenzamide]"
